# From article PMC9137581, “Identification of a Novel Class of Anti-Melanogenic Compounds, (Z)-5-(Substituted benzylidene)-3-phenyl-2-thioxothiazolidin-4-one Derivatives, and Their Reactive Oxygen Species Scavenging Activities” (Antioxidants, 2022)
# Where two headings read alike, the source gives them in different places.
# Columns and labels:
# [1] = molecular target: T1, mushroom tyrosinase (Agaricus bisporus, UniProt C7FF04); assay: Mushroom tyrosinase inhibition assay (L-tyrosine substrate); format: biochemical; conditions: L-tyrosine substrate; means ± SEMs of triplicate determinations
# T1 construct: purchased Sigma-Aldrich
# Method: In order to examine the inhibitory effect of the (Z)-BPTT analogs on tyrosinase activity, commercially available mushroom tyrosinase (Sigma-Aldrich, St. Louis, MO, USA) was used. The mushroom tyrosinase-inhibitory activities of the analogs were determined as described previously with modification. Briefly, 20 µL (20 units) of an aqueous mushroom tyrosinase solution was added to each well of a 96-well microplate containing 170 µL of a substrate mixture consisting of 345 μM of L-tyrosine solution, 17.2 mM phosphate buffer (pH 6.5), and 10 µL of a (Z)-BPTT analog solution at different concentrations or 10 µL of a kojic acid solution (2, 10, or 50 μM). After incubating the assay mixtures for 30 min at 37 °C, the remaining tyrosinase activities were calculated from the amounts of dopachrome that were formed as determined by measuring their absorbance at 492 nm using a microplate reader (VersaMax™, Molecular Devices, Sunnyvale, CA, USA). The curves of the IC50 values that were derived from the X-axis of the inhibitor concentration versus the amount of product that was produced were determined by aligning the dose–response curve with the Y-axis. Inhibition experiments were performed in triplicate using three to six different concentrations of the (Z)-BPTT analogs or kojic acid. Log–linear curves and their equations were determined by using inhibition percentages at three to six analog concentrations. The individual IC50 values were determined by reading the concentrations on the Y-axis at 50% inhibition. The results are the means of three independent experiments.
# The tyrosinase-inhibitory activities were screened against mushroom tyrosinase using L-tyrosine as a substrate, as previously described. Kojic acid, a representative tyrosinase inhibitor, was used as a positive control. […]. All 13 of the (Z)-BPTT analogs inhibited tyrosinase activity in a concentration-dependent manner. The IC50 values are shown in Table 2, along with the analog substitutions.
# [2] = test system: B16F10 murine melanoma cells; design: method as in PMID 34356311; conditions: ref [32]; cited from earlier work
# [3] = molecular target: mushroom tyrosinase; conditions: read-out: IC50 against mushroom tyrosinase, cited from earlier work
# [4] = test system: B16F10 cells; assay: Melanin content assay in α-MSH plus IBMX-stimulated cells; format: cell-based, murine; conditions: 48 h, B16F10 cells
# Method: Briefly, B16F10 cells were seeded at a density of 1 × 10^5 cells per well in 6-well plates and allowed to adhere to the well bases under the same conditions that were used for cell culturing. […] In order to determine the melanin contents, the B16F10 cells that were exposed to α-MSH and IBMX for 48 h were rinsed with PBS twice and incubated in 200 µL of 1 N NaOH solution containing 10% dimethyl sulfoxide (DMSO) for 1 h at 60 °C. The cell lysates were transferred to a 96-well plate and the absorbances at 405 nm were measured using a microplate reader (VersaMax™, Molecular Devices, Sunnyvale, CA, USA). These experiments were performed individually in triplicate. B16F10 cells were seeded in 6-well culture plates and pretreated with analogs 1, 3, and 6 at concentrations of 0, 5, 10, or 20 µM and with analog 2 at 0, 2.5, 5, or 10 µM for 1 h. α-Melanocyte-stimulating hormone (α-MSH; 1 µM) and 3-isobutyl-1-methylxanthine (IBMX; 200 µM) were added sequentially in order to enhance melanin production. After incubation for 48 h at 37 °C, the melanin contents were assessed by measuring the well optical densities at 405 nm using a microplate reader. Kojic acid (10 or 20 µM) was used as a positive control.
# [5] = test system: UVB-irradiated HRM2 hairless mice; design: method as in PMID 30554432; conditions: ref [31]; cited from earlier work
# [6] = DPPH radical scavenging activity assay; conditions: 1 mM, 30 min in the dark
# Method: The effects of the (Z)-BPTT analogs 1–13 on DPPH radical scavenging activities were investigated as previously described with slight modification. Briefly, 180 μL of 0.2 mM DPPH in methanol was added to 96-well plates and then 20 μL of one of the (Z)-BPTT analogs 1–13 (10 mM in DMSO) or the positive control (10 mM L-ascorbic acid in distilled water) was added and mixed. The 96-well plates were incubated in the dark for 30 min and then the well optical densities were measured at 517 nm using a VersaMax™ microplate reader (Molecular Devices, Sunnyvale, CA, USA). All of these experiments were performed independently in triplicate. The DPPH radical scavenging activities of the analogs were calculated using the following formula:Scavenging activity (%) = (Ac − As) × 100/Ac where Ac is the optical density of the non-treated control and As is the optical density of the tested material.
# The DPPH (2,2-diphenyl-1-picrylhydrazyl) radical scavenging abilities of the (Z)-BPTT analogs were investigated using L-ascorbic acid (vitamin C) as a positive control. The final concentrations of the analogs and of the positive control in the test samples and in the DPPH methanol solution were 1 and 0.18 mM, respectively. The scavenging activities of the analogs were assessed by measuring their optical densities at 517 nm after standing the samples in the dark for 30 min.
# [7] = ABTS free radical scavenging activity assay; conditions: 100 µM, 2 min in the dark
# Method: ABTS free radical scavenging activity was used to evaluate the antioxidant activities of analogs 1–13, as previously described. […] This ABTS free radical solution was then diluted with absolute methanol to an absorbance of 0.70 ± 0.02 at 734 nm. Aliquots (10 µL) of the test samples (10% DMSO + 90% EtOH) were added at a final concentration of 100 µM to 90 µL of the diluted ABTS free radical solution and incubated for 2 min in the dark at room temperature. Absorbances were then measured at 734 nm using a VersaMax™ microplate reader (Molecular Devices, Sunnyvale, CA, USA). The ABTS free radical scavenging activities of the test analogs were calculated using the following formula:Scavenging activity (%) = (Ac − As) × 100/Ac where Ac is the optical density of the non-treated control and As is the optical density of the tested material.
# The effects of analogs 1–13 on ABTS (2,2′-azino-bis(3-ethylbenzothiazoline-6-sulfonic acid)) free radical scavenging activity were investigated using trolox as a positive reference control. The concentrations of the analogs and trolox in the test samples were 100 µM. The free radical scavenging activities were assessed by measuring the optical densities at 734 nm after standing in the dark for 2 min. […] Analogs 7–10, with no hydroxyl groups on the β-phenyl ring, had weak ABTS and DPPH radical scavenging activities.
# T1 sequence (C7FF04 1-392 limits assumed): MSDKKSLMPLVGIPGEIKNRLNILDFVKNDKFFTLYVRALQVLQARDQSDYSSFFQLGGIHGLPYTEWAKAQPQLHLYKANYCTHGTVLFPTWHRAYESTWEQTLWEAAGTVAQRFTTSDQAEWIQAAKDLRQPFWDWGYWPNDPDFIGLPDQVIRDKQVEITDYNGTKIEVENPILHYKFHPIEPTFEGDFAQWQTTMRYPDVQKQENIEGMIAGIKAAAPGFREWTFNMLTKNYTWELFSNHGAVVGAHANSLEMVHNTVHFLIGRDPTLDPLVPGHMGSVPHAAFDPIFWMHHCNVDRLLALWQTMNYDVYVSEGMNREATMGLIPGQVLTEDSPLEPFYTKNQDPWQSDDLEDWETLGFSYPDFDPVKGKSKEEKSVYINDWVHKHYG
smiles,measurement,setting,value
"COc1ccc(/C=C2\SC(=S)N(c3ccccc3)C2=O)cc1OC [Analog 8, (Z)-5-(3,4-Dimethoxybenzylidene)-3-phenyl-2-thioxothiazolidin-4-one]",IC50,[1],94.3 ± 7.7 µM
"O=c1/c(=C/c2ccc(O)cc2O)sc2nc3ccccc3n12 [Compound I, (Z)-2-(2,4-dihydroxybenzylidene)benzo[4,5]imidazo[2,1-b]thiazol-3(2H)-one]",effects in cells,[2],anti-tyrosinase and anti-melanogenic effects
same,IC50,[3]; ref [32],5 ± 0.38 µM
"O=c1cc(CO)occ1O [kojic acid, reference compound]",reduction of α-MSH plus IBMX-induced increase in melanin content,[4]; 10 µM,21.8%
same,reduction of α-MSH plus IBMX-induced increase in melanin content,[4]; 20 µM,22.9%
"COc1ccc(/C=C2\SC(=S)NC2=O)cc1O [5-HMT, (Z)-5-(3-hydroxy-4-methoxybenzylidene)-2-thioxothiazolidin-4-one]",IC50,[3]; ref [31],18.1 ± 1 µM
same,skin effect in vivo,[5],skin-lighting effect
"COc1cc(/C=C2\SC(=S)N(c3ccccc3)C2=O)cc(OC)c1OC [Analog 10, (Z)-3-Phenyl-2-thioxo-5-(3,4,5-trimethoxybenzylidene)thiazolidin-4-one]",IC50,[1],> 200 µM
"COc1ccc(/C=C2\SC(=S)N(c3ccccc3)C2=O)c(OC)c1 [Analog 9, (Z)-5-(2,4-Dimethoxybenzylidene)-3-phenyl-2-thioxothiazolidin-4-one]",IC50,[1],22.1 ± 4.23 µM
"O=C1O[C@H]([C@@H](O)CO)C(O)=C1O [L-ascorbic acid, reference compound]",DPPH radical scavenging activity,[6],96.9%
"O=C1/C(=C/c2cc(Br)c(O)c(Br)c2)SC(=S)N1c1ccccc1 [Analog 13, (Z)-5-(3,5-Dibromo-4-hydroxybenzylidene)-3-phenyl-2-thioxothiazolidin-4-one]",IC50,[1],78.8 ± 8.63 µM
same,ABTS free radical scavenging activity (in words),[7],slightly decreased
"COc1cc(/C=C2\SC(=S)N(c3ccccc3)C2=O)cc(OC)c1O [Analog 11, (Z)-5-(4-Hydroxy-3,5-dimethoxybenzylidene)-3-phenyl-2-thioxothiazolidin-4-one]",IC50,[1],> 200 µM
same,ABTS free radical scavenging activity,[7],57.2%
"O=C1/C(=C/c2ccc(O)c(Br)c2)SC(=S)N1c1ccccc1 [Analog 12, (Z)-5-(3-Bromo-4-hydroxybenzylidene)-3-phenyl-2-thioxothiazolidin-4-one]",IC50,[1],65.5 ± 9.4 µM
same,ABTS free radical scavenging activity (in words),[7],did not influence
"COc1ccc(/C=C2\SC(=S)N(c3ccccc3)C2=O)cc1 [Analog 7, (Z)-5-(4-Methoxybenzylidene)-3-phenyl-2-thioxothiazolidin-4-one]",IC50,[1],> 200 µM
"COc1cc(/C=C2\SC(=S)N(c3ccccc3)C2=O)ccc1O [Analog 4, (Z)-5-(4-Hydroxy-3-methoxybenzylidene)-3-phenyl-2-thioxothiazolidin-4-one]",IC50,[1],80 ± 3.3 µM
same,ABTS free radical scavenging activity,[7],61.5%
same,DPPH radical scavenging activity,[6],78.7%
"Cc1c(C)c2c(c(C)c1O)CCC(C)(C(=O)O)O2 (stereo not drawn) [trolox, reference compound]",ABTS free radical scavenging activity,[7],99.8%
"CCOc1cc(/C=C2\SC(=S)N(c3ccccc3)C2=O)ccc1O [Analog 5, (Z)-5-(3-Ethoxy-4-hydroxybenzylidene)-3-phenyl-2-thioxothiazolidin-4-one]",IC50,[1],> 200 µM
same,ABTS free radical scavenging activity,[7],51.2%
same,DPPH radical scavenging activity,[6],77.5%
